# In patent US10344049B2, “Substituted steroids for the treatment of cancer” (AQUAVAN TECHNOLOGY CO., LTD., priority 2017, dated 2019):
# Where two headings read alike, the source gives them in different places.
# Tests used:
# Assay type in all cases: cell-based
# [1] = tested on: human leukemia cells U937; experiment: Cell viability test (Resazurin), U937 cells
# Method: (§1) Cell viability was determined with Resazurin (at a final concentration of 25 μg/mL).
# [2] = tested on: human liver cancer cells Mahlavu; experiment: Cell viability test (Resazurin), Mahlavu cells
# Method: as §1
# [3] = tested on: African green monkey kidney cells Vero; experiment: Cell viability test (Resazurin), Vero cells; conditions: for evaluation of ability to inhibit cell growth activity (IC50): grade of the IC50 of Table 2
# Method: as §1
# [4] = tested on: human lung cancer cells A549; experiment: Cell viability test (Resazurin), A549 cells; set-up: evaluation of ability to inhibit cell growth activity (IC50): scale not given here
# Method: as §1
# [5] = tested on: human Glioblastoma cells U87-MG; experiment: Cell viability test (Resazurin), U87-MG cells; set-up: evaluation of ability to inhibit cell growth activity (IC50): scale not given here
# Method: as §1
# [6] = tested on: human breast cancer cells MDA-MB-231; experiment: Cell viability test (Resazurin), MDA-MB-231 cells; set-up: evaluation of ability to inhibit cell growth activity (IC50): scale not given here
# Method: as §1
# [7] = tested on: human colorectal cancer cells SW-480; experiment: Cell viability test (Resazurin), SW480 cells; set-up: evaluation of ability to inhibit cell growth activity (IC50): scale not given here
# Method: as §1
# [8] = tested on: human breast cancer cells MDA-MB-468; experiment: Cell viability test (Resazurin), MDA-MB-468 cells
# Method: as §1
# [9] = U937 cells, 48 hours, 0.1% FCS, Resazurin, read-out: inhibitory concentrations of cell growth activity IC50
# [10] = U937 cells, grade of the IC50 of Table 2, read-out: evaluation of ability to inhibit cell growth activity (IC50)
# [11] = Homo sapiens, Mahlavu, 48 h, 0.1% FCS, Resazurin, read-out: inhibitory concentrations of cell growth activity IC50
# [12] = Homo sapiens, Mahlavu, grade of the IC50 of Table 2, read-out: evaluation of ability to inhibit cell growth activity (IC50)
# [13] = Chlorocebus sabaeus, Vero, 48 h, 0.1% FCS, Resazurin, read-out: inhibitory concentrations of cell growth activity IC50
# [14] = Chlorocebus sabaeus, Vero, grade of the IC50 of Table 2, read-out: evaluation of ability to inhibit cell growth activity (IC50)
# [15] = Homo sapiens, A549, 48 h, A549 cells, 48 hours, 0.1% FCS, Resazurin, read-out: inhibitory concentrations of cell growth activity IC50
# [16] = Homo sapiens, A549, A549 cells, grade of the IC50 of Table 2, read-out: evaluation of ability to inhibit cell growth activity (IC50)
# [17] = Homo sapiens, U-87 MG, 48 h, 0.1% FCS, Resazurin, read-out: inhibitory concentrations of cell growth activity IC50
# [18] = Homo sapiens, U-87 MG, grade of the IC50 of Table 2, read-out: evaluation of ability to inhibit cell growth activity (IC50)
# [19] = Homo sapiens, MDA-MB-231, 48 h, MDA-MB-231 cells, 48 hours, 0.1% FCS, Resazurin, read-out: inhibitory concentrations of cell growth activity IC50
# [20] = Homo sapiens, MDA-MB-231, MDA-MB-231 cells, grade of the IC50 of Table 2, read-out: evaluation of ability to inhibit cell growth activity (IC50)
# [21] = Homo sapiens, SW480, 48 h, SW480 cells, 48 hours, 0.1% FCS, Resazurin, read-out: inhibitory concentrations of cell growth activity IC50
# [22] = Homo sapiens, SW480, SW480 cells, grade of the IC50 of Table 2, read-out: evaluation of ability to inhibit cell growth activity (IC50)
# [23] = Homo sapiens, MDA-MB-468, 48 h, MDA-MB-468 cells, 48 hours, 0.1% FCS, Resazurin, read-out: inhibitory concentrations of cell growth activity IC50
# [24] = Homo sapiens, MDA-MB-468, MDA-MB-468 cells, grade of the IC50 of Table 2, read-out: evaluation of ability to inhibit cell growth activity (IC50)
# [25] = U937 cells, grade of the IC50 of Table 2
# [26] = 48 hours, 0.1% FCS, Resazurin, read-out: inhibitory concentrations of cell growth activity IC50
# [27] = grade of the IC50 of Table 2, read-out: evaluation of ability to inhibit cell growth activity (IC50)
# [28] = A549 cells, 48 hours, 0.1% FCS, Resazurin, read-out: inhibitory concentrations of cell growth activity IC50
# [29] = A549 cells, grade of the IC50 of Table 2, read-out: evaluation of ability to inhibit cell growth activity (IC50)
# [30] = MDA-MB-231 cells, 48 hours, 0.1% FCS, Resazurin, read-out: inhibitory concentrations of cell growth activity IC50
# [31] = MDA-MB-231 cells, grade of the IC50 of Table 2, read-out: evaluation of ability to inhibit cell growth activity (IC50)
# [32] = SW480 cells, 48 hours, 0.1% FCS, Resazurin, read-out: inhibitory concentrations of cell growth activity IC50
# [33] = SW480 cells, grade of the IC50 of Table 2, read-out: evaluation of ability to inhibit cell growth activity (IC50)
# [34] = MDA-MB-468 cells, 48 hours, 0.1% FCS, Resazurin, read-out: inhibitory concentrations of cell growth activity IC50
# [35] = MDA-MB-468 cells, grade of the IC50 of Table 2, read-out: evaluation of ability to inhibit cell growth activity (IC50)
# [36] = Homo sapiens, U-937, U937 cells, grade of the IC50 of Table 2, read-out: evaluation of ability to inhibit cell growth activity (IC50)
# [37] = Homo sapiens, U-937, 48 h, U937 cells, 48 hours, 0.1% FCS, Resazurin, read-out: inhibitory concentrations of cell growth activity IC50
SMILES,"IC50 [1, 9] [µM]","IC50 [1, 10] [µM]","IC50 [2, 11] [µM]","IC50 [2, 12] [µM]","IC50 [3, 13] [µM]","IC50 [3, 14] [µM]","IC50 [4, 16] [µM]","IC50 [2, 26] [µM]","IC50 [2, 27] [µM]","IC50 [3, 26] [µM]","IC50 [4, 28] [µM]","IC50 [4, 29] [µM]","IC50 [5, 26] [µM]","IC50 [5, 27] [µM]","IC50 [6, 30] [µM]","IC50 [6, 31] [µM]","IC50 [7, 32] [µM]","IC50 [7, 33] [µM]","IC50 [8, 34] [µM]","IC50 [8, 35] [µM]",further results
COC1O[C@]23C=C[C@@H]4[C@@]1(CC[C@]1(C)[C@@H]([C@H](C)C[C@H](C=C(C)C)OC)CC[C@@]41C)[C@@H]2CC[C@H](O)C3(C)C (some centres unmarked) [Compound 16],97.9,64 to 256,> 256,> 256,> 256,> 256,> 256,,,,,,,,,,,,,,"IC50 [4, 15]: > 256 µM; IC50 [5, 17]: > 256 µM; IC50 [5, 18]: > 256 µM; IC50 [6, 19]: > 256 µM; IC50 [6, 20]: > 256 µM; IC50 [7, 21]: > 256 µM; IC50 [7, 22]: > 256 µM; IC50 [8, 23]: > 256 µM; IC50 [8, 24]: > 256 µM"
COC1O[C@]23C=C[C@@H]4[C@@]1(CC[C@]1(C)[C@@H]([C@H](C)C/C=C/C(C)(C)OC)CC[C@@]41C)[C@@H]2CC[C@H](O)C3(C)C (some centres unmarked) [Compound 17],12.2,,,,,,,> 256,> 256,> 256,> 256,> 256,> 256,> 256,> 256,> 256,> 256,> 256,9.4,,"evaluation of ability to inhibit cell growth activity (IC50) [1, 25]: ◯; IC50 [3, 27]: > 256 µM; evaluation of ability to inhibit cell growth activity (IC50) ([8]; MDA-MB-468 cells, grade of the IC50 of Table 2): ◯"
CO[C@H]1O[C@]23C=C[C@@H]4[C@@]1(CC[C@]1(C)[C@@H]([C@H](C)C[C@H](C=C(C)C)OC)CC[C@@]41C)[C@@H]2CC[C@H](O)C3(C)C [Compound 18],> 256,> 256,,,,,,> 256,> 256,> 256,> 256,> 256,> 256,> 256,> 256,> 256,> 256,> 256,> 256,> 256,"IC50 [3, 27]: > 256 µM"
COC1O[C@]23C=C[C@@H]4[C@@]1(CC[C@]1(C)[C@@H]([C@H](C)C/C=C/C(C)(C)O)CC[C@@]41C)[C@@H]2CC[C@H](O)C3(C)C (some centres unmarked) [Compound 19],11.9,,20.7,16 to 64,,16 to 64,16 to 64,,,36.1,45.6,,25,16 to 64,22.6,16 to 64,,16 to 64,24.4,16 to 64,"IC50 [1, 36]: 8 to 16 µM; evaluation of ability to inhibit cell growth activity (IC50) [1, 25]: ◯; IC50 [7, 21]: 16.6 µM"
CO[C@H]1O[C@]23C=C[C@@H]4[C@@]1(CC[C@]1(C)[C@@H]([C@H](C)C/C=C/C(C)(C)O)CC[C@@]41C)[C@@H]2CC[C@H](O)C3(C)C [Compound 20],4.33,< 8,,,,,,19.7,16 to 64,12.5,20.1,16 to 64,12.2,,10.4,,12.6,,6.9,,"evaluation of ability to inhibit cell growth activity (IC50) [3]: ◯; IC50 [5, 18]: 8 to 16 µM; evaluation of ability to inhibit cell growth activity (IC50) ([5]; grade of the IC50 of Table 2): ◯; IC50 [6, 20]: 8 to 16 µM; evaluation of ability to inhibit cell growth activity (IC50) ([6]; MDA-MB-231 cells, grade of the IC50 of Table 2): ◯; IC50 [7, 22]: 8 to 16 µM; evaluation of ability to inhibit cell growth activity (IC50) ([7]; SW480 cells, grade of the IC50 of Table 2): ◯; IC50 [8, 24]: < 8 µM"
COC1O[C@]23C=C[C@@H]4[C@@]1(CC[C@]1(C)[C@@H]([C@H](C)C[C@@H](O)C=C(C)C)CC[C@@]41C)[C@@H]2CC[C@H](O)C3(C)C (some centres unmarked) [Compound 21],,,> 256,> 256,> 256,> 256,> 256,,,,,,83.5,64 to 256,,64 to 256,118,64 to 256,35.4,16 to 64,"IC50 [1, 37]: 6.19 µM; IC50 [1, 36]: < 8 µM; IC50 [4, 15]: > 256 µM; IC50 [6, 19]: 130 µM"
CO[C@@H]1O[C@]23C=C[C@@H]4[C@@]1(CC[C@]1(C)[C@@H]([C@H](C)C[C@@H](O)C=C(C)C)CC[C@@]41C)[C@@H]2CC[C@H](O)C3(C)C [Compound 22],6.17,< 8,,,,,,> 256,> 256,> 256,> 256,> 256,> 256,> 256,> 256,> 256,> 256,> 256,> 256,> 256,"IC50 [3, 27]: > 256 µM"
CO[C@H]1C=C2[C@@H](CC[C@H](O)C2(C)C)[C@]2(C=O)CC[C@]3(C)[C@@H]([C@H](C)C/C=C/C(C)(C)OC)CC[C@@]3(C)[C@H]12 [Compound 23],,,15.4,8 to 16,15.9,,8 to 16,,,,,,,,,,,,,,"IC50 [1, 37]: 5.75 µM; IC50 [1, 36]: < 8 µM; evaluation of ability to inhibit cell growth activity (IC50) ([2]; grade of the IC50 of Table 2): ◯; evaluation of ability to inhibit cell growth activity (IC50) [3]: ◯; evaluation of ability to inhibit cell growth activity (IC50) ([4]; A549 cells, grade of the IC50 of Table 2): ◯; IC50 [4, 15]: 15.3 µM; IC50 [5, 17]: 7.65 µM; IC50 [5, 18]: < 8 µM; IC50 [6, 19]: 7.91 µM; IC50 [6, 20]: < 8 µM; IC50 [7, 21]: 7.56 µM; IC50 [7, 22]: < 8 µM; IC50 [8, 23]: 7.55 µM; IC50 [8, 24]: < 8 µM"
